The source of these data is US8309068B2, “Isolated polypeptides and methods of improving muscle strength” (Myostin Therapeutics Pty Ltd., priority 2006, dated 2012).

One data set relates to C2C12 myoblasts. Put plainly: C2C12 myoblast proliferation assay (methylene blue endpoint). As to conditions: for proliferation capacity of myoblasts compared to control: 1 μg/ml or 5 μg/ml over 48 or 72 hours. In kind it is cell-based, murine. On the procedure: A polypeptide of the invention, or a fragment, variant or derivative thereof has the biological function of antagonising myostatin activity. To determine whether a polypeptide of the invention, or a fragment, variant or derivative thereof, is able to antagonise myostatin activity, such activity can be tested by growing myoblasts in the presence or absence (control) of a candidate polypeptide of the invention. […]
The myoblast proliferation assay was carried out in uncoated 96-well microtitre plates. C2C12 cultures were seeded at 1000 cells/well. Following a 16-hour attachment period, test media containing either recombinant wild type myostatin or different myostatin antagonists were added and cells were incubated for a further 48 or 72 hour period. For competition assay, wild type myostatin was competed with different concentrations of myostatin antagonists prior to the addition into the media. After the incubation period, proliferation was assessed using methylene blue photometric endpoint assay as previously described (Thomas et al, 2000).

In data set [1] the test system is C57B mice injected with Dexamethasone. Description: In vivo cachexia trial (Dexamethasone-induced). The method, then: A study of chronic cachexia was designed whereby C57B mice, 4 weeks of age, were injected with the glucocorticoid drug Dexamethasone daily at a concentration of 1 mg/kg body weight. Three treatment groups were designed: 5 mice receiving daily injections of saline, 5 mice receiving daily injections of Dexamethasone and 5 mice receiving daily injections of Dexamethasone plus 300 antagonist at a concentration of 6μg/g body weight. Body weight of the mice was recorded daily and monitored closely for signs of cachexia. Food and water consumption was recorded to ensure that loss in body weight was not due to a loss of appetite or thirst. Body weights, fat-pad weights, and MyoD and Pax7 expression were assessed.

[2] abbreviates: Dexamethasone, right gastrocnemius, p<0.05.

Entries after “also recorded” stand apart in the source; their conditions may differ. Where no end group is shown, it is not given here.

Turning to “myostatin antagonist 280: recombinant peptide, amino acids 267-280 of bovine myostatin, with tags; contains only one cysteine residue; inactive comparison (DFGLDCDEHSTESR; also: with tags; UniProt O18836 267-280, looked up, fragment)”, in the data set on C2C12 myoblasts, the “proliferation capacity of myoblasts compared to control” value was “did not show activity above the control”. For the same molecule, in the data set with C2C12 myoblasts (listed as 280), the “biological (myostatin antagonist) activity of the peptide” value is “appears to be inactive; also recorded: not biologically active”.

With `C[C@@H]1C[C@H]2[C@@H]3CCC4=CC(=O)C=C[C@]4(C)[C@@]3(F)[C@@H](O)C[C@]2(C)[C@@]1(O)C(=O)CO` [Dexamethasone, reference compound], the “average body weight compared with saline injected controls” value in data set [1] (Dexamethasone 1 mg/kg daily, 22 days) is “reduction in average body weight”. In data set [1] (Dexamethasone only), the “increase in left retroperitoneal fat-pad weight compared to saline” value turned out to be 62.9% and the “increase in right retroperitoneal fat-pad weight compared to saline” value is recorded as 60.4%. Further, the “left and right retroperitoneal and inguinal fat-pad weights compared to saline” value in data set [1] (Dexamethasone only, p<0.05) was “statistically significant increases”. In data set [1] (setting [2]), the “MyoD expression (Western blot)” value was “significant down-regulation” and the “Pax7 expression (Western blot)” value is reported as “significant down-regulation”.

B1: myostatin antagonist 329: recombinant peptide, amino acids 267-329 of bovine myostatin, with N terminal and C terminal tag (SEQ ID NO: 3) (protein, listed as Homo sapiens)
chain: DFGLDCDEHSTESRCCRYPLTVDFEAFGWDWIIAPKRYKANYCSGECEFVFLQKYPHTHLVHQ
modifications: N- and C-terminal tags
Turning to B1, in the data set on C2C12 myoblasts, the “proliferation capacity of myoblasts compared to control” value was “significantly enhanced”. Further, the “concentration at which the highest myoblast proliferation rate was observed” value with C2C12 myoblasts (48 hour time point) is 10 µg/mL.
